Where two headings read alike, the source gives them in different places. Where a SMILES comes first, the peptide text is derived from it.
Assays:
[1] = tested on: NLRC4 inflammasome; details: cited from earlier work
[2] = tested on: AIM2 inflammasome; details: cited from earlier work
[3] = target: NLRP3 inflammasome (Homo sapiens, UniProt Q96P20); details: cited from earlier work
[4] = tested on: Cx43 hemichannel; details: glioma cells; read-out: IC50 (half maximal inhibitory concentration) for the inhibition of ATP release; cited from earlier work
[5] = target: Panx1 channel (Homo sapiens, UniProt Q96RD7); details: cited from earlier work
[6] = target: gap junction (Homo sapiens, UniProt P17302); details: cited from earlier work
[7] = Pharmacokinetics of tonabersat after single and repeat oral dosing, 40 and 80 mg once daily; type: in vivo, human; details: for half-life: human, plasma
Excerpt: In some embodiments, a connexin hemichannel modulator (e.g., a connexin 43 hemichannel modulator) is provided in an amount to achieve and/or to maintain a steady state amount over a desired period of time, including some or part of a dosing regimen for use in addressing one or more signs or symptom of a post-acute infection syndrome, disorder, disease or condition. In some embodiments, the connexin hemichannel modulator (e.g., a connexin 43 hemichannel modulator) is a compound according to Formula I. In some embodiments, the connexin hemichannel modulator (e.g., a connexin 43 hemichannel modulator) is a compound according to Formula II.

[8] = Pharmacokinetics of tonabersat after single and multiple dosing, 240 to 400 mg, fasted and fed (MAD and DDI parts); type: in vivo, human; details: for AUC(0-inf) / half-life / Tmax: human, in vivo, oral; for AUC(0-inf): 320 mg; for half-life: read-out: geometric mean t1/2; for Tmax: read-out: median tmax
Excerpt: In some embodiments, a connexin hemichannel modulator (e.g., a connexin 43 hemichannel modulator) is provided in an amount to achieve and/or to maintain a steady state amount over a desired period of time, including some or part of a dosing regimen for use in addressing one or more signs or symptom of a post-acute infection syndrome, disorder, disease or condition. In some embodiments, the connexin hemichannel modulator (e.g., a connexin 43 hemichannel modulator) is a compound according to Formula I. In some embodiments, the connexin hemichannel modulator (e.g., a connexin 43 hemichannel modulator) is a compound according to Formula II. […] There was no evidence of time- or dose-related changes in systemic exposure of tonabersat. For a drug to show no change in its pharmacokinetic behavior on chronic dosing, the steady-state accumulation ratio (Rs) should equal unity. […] After both single and multiple dosing, Cmax and AUC increased with increasing dose in a dose-proportional manner across the dose range studied. […] Therefore, total exposure (extent of absorption) was not affected by food administration, whereas the rate of drug absorption was increased in the presence of food. […] The half-life was not affected by fed conditions.

[9] = target: gap junctions (Homo sapiens, UniProt P08034); design: dose or concentration left out as unconfirmed; details: cited from earlier work
Chain of gap junctions (P08034 whole entry): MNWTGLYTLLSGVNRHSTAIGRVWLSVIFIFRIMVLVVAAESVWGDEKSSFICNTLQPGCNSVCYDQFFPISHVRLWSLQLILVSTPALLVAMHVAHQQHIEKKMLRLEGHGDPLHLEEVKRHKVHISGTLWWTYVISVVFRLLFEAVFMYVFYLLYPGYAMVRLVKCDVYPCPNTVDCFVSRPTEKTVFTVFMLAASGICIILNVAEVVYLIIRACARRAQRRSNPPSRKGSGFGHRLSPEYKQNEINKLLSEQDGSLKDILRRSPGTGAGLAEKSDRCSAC

Chain of Panx1 channel (Q96RD7 whole entry): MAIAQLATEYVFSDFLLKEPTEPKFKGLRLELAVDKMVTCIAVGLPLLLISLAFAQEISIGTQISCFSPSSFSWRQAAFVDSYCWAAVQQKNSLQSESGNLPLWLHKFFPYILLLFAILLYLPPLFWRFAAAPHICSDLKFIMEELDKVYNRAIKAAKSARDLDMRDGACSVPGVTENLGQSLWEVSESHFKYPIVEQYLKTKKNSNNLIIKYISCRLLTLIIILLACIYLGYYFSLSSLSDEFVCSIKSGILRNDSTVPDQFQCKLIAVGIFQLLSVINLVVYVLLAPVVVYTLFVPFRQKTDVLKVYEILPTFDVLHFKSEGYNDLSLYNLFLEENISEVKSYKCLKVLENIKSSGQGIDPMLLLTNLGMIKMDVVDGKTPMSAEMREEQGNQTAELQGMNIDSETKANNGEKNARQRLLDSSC
Chain of gap junction (P17302 whole entry): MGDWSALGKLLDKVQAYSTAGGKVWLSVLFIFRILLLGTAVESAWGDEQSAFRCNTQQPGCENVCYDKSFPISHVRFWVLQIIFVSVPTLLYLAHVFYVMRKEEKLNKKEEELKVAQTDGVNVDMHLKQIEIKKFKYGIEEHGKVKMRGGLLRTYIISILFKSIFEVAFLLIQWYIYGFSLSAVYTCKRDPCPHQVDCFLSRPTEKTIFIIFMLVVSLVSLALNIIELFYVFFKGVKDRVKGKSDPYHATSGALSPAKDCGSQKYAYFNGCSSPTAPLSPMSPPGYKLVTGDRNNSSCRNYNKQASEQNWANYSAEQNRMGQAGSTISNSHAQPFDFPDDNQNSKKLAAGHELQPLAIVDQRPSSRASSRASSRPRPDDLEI
Chain of NLRP3 inflammasome (Q96P20 whole entry): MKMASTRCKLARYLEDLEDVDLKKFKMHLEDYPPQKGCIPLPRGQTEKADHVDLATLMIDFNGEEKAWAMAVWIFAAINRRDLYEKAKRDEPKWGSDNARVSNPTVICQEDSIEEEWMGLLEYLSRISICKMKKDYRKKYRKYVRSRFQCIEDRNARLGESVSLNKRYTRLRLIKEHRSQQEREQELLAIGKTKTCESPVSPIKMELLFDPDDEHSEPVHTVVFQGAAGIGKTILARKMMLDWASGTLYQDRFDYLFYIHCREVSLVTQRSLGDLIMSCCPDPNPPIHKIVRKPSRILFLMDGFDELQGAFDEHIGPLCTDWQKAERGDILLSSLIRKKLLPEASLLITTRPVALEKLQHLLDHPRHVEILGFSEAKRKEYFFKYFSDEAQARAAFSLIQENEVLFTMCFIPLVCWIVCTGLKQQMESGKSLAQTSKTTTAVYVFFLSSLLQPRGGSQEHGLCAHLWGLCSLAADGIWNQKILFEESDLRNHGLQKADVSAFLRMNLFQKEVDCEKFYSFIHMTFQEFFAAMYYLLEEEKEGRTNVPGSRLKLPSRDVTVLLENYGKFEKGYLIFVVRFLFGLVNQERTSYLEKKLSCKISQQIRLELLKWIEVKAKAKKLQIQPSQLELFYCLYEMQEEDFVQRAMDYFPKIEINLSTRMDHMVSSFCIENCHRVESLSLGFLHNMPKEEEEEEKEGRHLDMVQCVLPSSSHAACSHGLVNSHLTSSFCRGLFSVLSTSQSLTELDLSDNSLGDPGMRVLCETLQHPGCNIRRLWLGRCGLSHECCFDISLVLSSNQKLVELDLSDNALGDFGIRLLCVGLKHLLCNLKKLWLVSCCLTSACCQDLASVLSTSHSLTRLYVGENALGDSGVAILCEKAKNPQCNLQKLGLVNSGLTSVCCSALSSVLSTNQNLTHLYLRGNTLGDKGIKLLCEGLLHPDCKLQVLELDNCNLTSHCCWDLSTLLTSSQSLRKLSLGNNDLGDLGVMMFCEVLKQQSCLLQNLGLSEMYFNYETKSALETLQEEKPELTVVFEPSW

CC(C)C[C@H](NC(=O)[C@H](Cc1ccccc1)NC(=O)c1c(F)cccc1F)B(O)O [NIC-102, ((R)-1-((S)-2-(2,6-difluorobenzamido)-3-phenylpropanamido)-3-methylbutyl)boronic acid]
effect on NLRC4 inflammasome [1]: no effect | effect on AIM2 inflammasome [2]: no effect | effect on NLRP3 inflammasome activation [3]: specifically prevents

CC[C@H](C)[C@H](NC(=O)[C@H](CCC(=O)O)NC(=O)[C@@H](NC(=O)[C@H](CCC(N)=O)NC(=O)[C@H](CCCCN)NC(=O)[C@H](CCCNC(=N)N)NC(=O)[C@H](CCCNC(=N)N)NC(=O)[C@H](CCCNC(=N)N)NC(=O)[C@H](CCC(N)=O)NC(=O)[C@H](CCCNC(=N)N)NC(=O)[C@H](CCCNC(=N)N)NC(=O)[C@H](CCCCN)NC(=O)[C@H](CCCCN)NC(=O)[C@H](CCCNC(=N)N)NC(=O)CNC(=O)[C@@H](N)Cc1ccc(O)cc1)[C@@H](C)CC)C(=O)N[C@@H](CCCCN)C(=O)N[C@@H](CCCCN)C(=O)N[C@@H](Cc1ccccc1)C(=O)N[C@@H](CCCCN)C(=O)O [TAT-^43Gap19] (H-YGRKKRRQRRRKQIEIKKFK-OH; N-terminus and C-terminus assumed)
IC50 [4]: 7 µM

CC[C@H](C)[C@H](NC(=O)[C@H](CCC(=O)O)NC(=O)[C@@H](NC(=O)[C@H](CCC(N)=O)NC(=O)[C@@H](N)CCCCN)[C@@H](C)CC)C(=O)N[C@@H](CCCCN)C(=O)N[C@@H](CCCCN)C(=O)N[C@@H](Cc1ccccc1)C(=O)N[C@@H](CCCCN)C(=O)O [^43Gap19] (H-KQIEIKKFK-OH; N-terminus and C-terminus assumed)
effect on Panx1 channel activity (selectivity) [5]: does not affect | effect on gap junction activity (selectivity) [6]: does not affect | IC50 [4]: 47 µM

CC(=O)c1ccc2c(c1)[C@H](NC(=O)c1ccc(F)c(Cl)c1)[C@H](O)C(C)(C)O2 [tonabersat, N-[(3S,4S)-6-acetyl-3-hydroxy-2,2-dimethyl-3,4-dihydrochromen-4-yl]-3-chloro-4-fluorobenzamide]
dose proportionality of pharmacokinetics (dose-normalized Cmax and AUC(0-t)) ([7]; between 40 and 80 mg once daily, single or multiple doses): approximately dose proportional | half-life ([7]; oral, read-out: elimination half-life): 24 to 36 h | half-life ([7]; oral, read-out: mean half-life (converted)): ~25 h | half-life ([7]; po, single and repeat oral dosing, read-out: terminal elimination phase T1/2): 24 to 33 h | time tonabersat generally quantifiable in the plasma post-dose ([7]; single and repeat oral dosing): at least 96 hours | time- or dose-related changes in systemic exposure ([7]; single and repeat oral dosing): no evidence | half-life, effect of fed conditions ([8]; fed vs fasted): not affected | rate of drug absorption in the presence of food ([8]; fed vs fasted): increased | total exposure (extent of absorption), effect of food administration ([8]; fed vs fasted): not affected | AUC(0-inf) ([8]; single dose 320 mg fasted): 285 µg·h/mL | AUC(0-inf) ([8]; single dose 320 mg fed): 296 µg·h/mL | half-life ([8]; after multiple dosing, Day 14): 37.5 to 41.6 h | half-life ([8]; after single dosing): 28.9 to 37.8 h | Tmax ([8]; single dose 240 mg, fasted): 16 h | Tmax ([8]; single dose 320 mg, fasted): 10.5 h | Tmax ([8]; single or multiple dosing 240 mg to 400 mg, fed (light, medium or fed)): 3 to 4 h | accumulation of Cmax and AUC ([8]; multiple dosing 13 to 14 consecutive days, Days 13 or 14 compared to Day 1): approximately 3 fold | Cmax and AUC increase with increasing dose ([8]; single and multiple dosing, across the dose range studied): dose-proportional

GHGDPLHLEEVKC [^32Gap24]
effect on gap junctions [9]: without affecting
